In patent publication US5336763A, “Trisazo dye and dye composition containing the same” (Orient Chemical Industries, Ltd., priority 1992, dated 1994):
Where two headings read alike, the source gives them in different places.

Test system: strains TA98
Assay type: cell-based
Conditions: for AMES evaluation: strains TA98
Experimental: Regarding various specimen solutions respectively containing trisazo dyes obtained in Examples 1 to 11 to the present invention and dyes of Comparative Examples 1 to 3, the number of mutant colonies was determined using strains TA98. 2. When the ratio is less than 2, it is "negative" and, when the ratio is more than 2, it is "positive", and the results are shown in Table. 1.

Row | Structure (SMILES) | Ames test: ratio of number of colonies to control (20 μg/plate, with S-9) | Ames test: ratio of number of colonies to control (20 μg/plate, without S-9) | Ames test: ratio of number of colonies to control (78 μg/plate, with S-9) | Ames test: ratio of number of colonies to control (78 μg/plate, without S-9) | Ames test: ratio of number of colonies to control (313 μg/plate, with S-9) | Ames test: ratio of number of colonies to control (313 μg/plate, without S-9) | Ames test: ratio of number of colonies to control (1250 μg/plate, with S-9) | Ames test: ratio of number of colonies to control (1250 μg/plate, without S-9) | Ames test: ratio of number of colonies to control (5000 μg/plate, with S-9) | Ames test: ratio of number of colonies to control (5000 μg/plate, without S-9) | AMES evaluation
1 | Nc1ccc(N=Nc2ccc(Oc3ccc(Oc4ccc(N=Nc5c(S(=O)(=O)O)cc6cc(S(=O)(=O)O)c(N=Nc7ccccc7)c(O)c6c5N)cc4)cc3)cc2)c(O)c1 [Ex. 4] | 1.04 | 0.88 | 1.23 | 0.79 | 0.99 | 0.96 | 0.88 | 1.15 | 0.90 | 0.92 | Negative (When the ratio is less than 2, it is "negative")
2 | Nc1ccc(N=Nc2ccc(Oc3ccc(Oc4ccc(N=Nc5c(S(=O)(=O)O)cc6cc(S(=O)(=O)O)c(N=Nc7ccc(S(=O)(=O)O)cc7)c(O)c6c5N)cc4)cc3)cc2)c(O)c1 [Ex. 8] | 0.94 | 1.05 | 0.92 | 1.08 | 0.92 | 0.93 | 0.93 | 1.03 | 1.03 | 1.12 | Negative (When the ratio is less than 2, it is "negative")
3 | Nc1c(N=Nc2ccc(Oc3ccc(Oc4ccc(N=Nc5ccc(O)cc5O)cc4)cc3)cc2)c(S(=O)(=O)O)cc2cc(S(=O)(=O)O)c(N=Nc3ccccc3)c(O)c12 [Ex. 5] | 0.93 | 0.89 | 1.04 | 0.95 | 0.86 | 0.63 | 1.04 | 0.79 | 0.57 | 0.68 | Negative (When the ratio is less than 2, it is "negative")
4 | CCC(C)c1ccc(N=Nc2c(S(=O)(=O)O)cc3cc(S(=O)(=O)O)c(N=Nc4ccc(Oc5cccc(Oc6ccc(N=Nc7ccc(O)cc7O)cc6)c5)cc4)c(N)c3c2O)cc1 (centres unmarked) [Ex. 3] | 1.32 | 0.76 | 1.79 | 0.86 | 1.59 | 0.86 | 0.76 | 1.10 | 0.56 | 0.95 | Negative (When the ratio is less than 2, it is "negative")
5 | Nc1ccc(N=Nc2ccc(Oc3cccc(Oc4ccc(N=Nc5cc(S(=O)(=O)O)c6cc(S(=O)(=O)O)c(N=Nc7ccccc7)c(O)c6c5N)cc4)c3)cc2)c(O)c1 [Ex. 9] | 1.05 | 0.85 | 1.00 | 0.65 | 1.16 | 0.75 | 1.00 | 0.60 | 0.53 | 1.15 | Negative (When the ratio is less than 2, it is "negative")
6 | Nc1ccc(N=Nc2ccc(S(=O)(=O)c3ccc(N=Nc4c(S(=O)(=O)O)cc5cc(S(=O)(=O)O)c(N=Nc6ccccc6)c(O)c5c4N)cc3)cc2)c(O)c1 [compound 2, reference compound] | 5.26 | 1.10 | 26.3 | 1.52 | 9.11 | 1.29 | 1.23 | 1.38 | 1.61 | 3.38 | Positive (when the ratio is more than 2, it is "positive")
7 | Cc1ccccc1N=Nc1c(S(=O)(=O)O)cc2cc(S(=O)(=O)O)c(N=Nc3ccc(Oc4ccc(Oc5ccc(N=Nc6ccc(O)cc6O)cc5)cc4)cc3)c(N)c2c1O [Ex. 7] | 0.94 | 0.95 | 0.89 | 1.00 | 1.00 | 0.80 | 1.05 | 0.80 | 1.05 | 1.00 | Negative (When the ratio is less than 2, it is "negative")
8 | Nc1c(N=Nc2ccc(Oc3ccc(Oc4ccc(N=Nc5ccc(O)cc5O)cc4)cc3)cc2)cc(S(=O)(=O)O)c2ccc(N=Nc3ccccc3)c(O)c12 [Ex. 10] | 0.91 | 1.03 | 0.92 | 1.01 | 0.85 | 0.84 | 1.09 | 1.02 | 0.90 | 0.97 | Negative (When the ratio is less than 2, it is "negative")
9 | Cc1cc(-c2ccc(N=Nc3c(S(=O)(=O)O)cc4cc(S(=O)(=O)O)c(N=Nc5ccccc5)c(O)c4c3N)c(C)c2)ccc1N=Nc1ccc(N)cc1N [compound 1, reference compound] | 1.92 | 0.72 | 2.35 | 0.68 | 2.50 | 0.84 | 1.50 | 0.76 | 0.85 | 0.96 | Positive (when the ratio is more than 2, it is "positive")
10 | Cc1cc(-c2ccc(N=Nc3c(S(=O)(=O)O)cc4cc(S(=O)(=O)O)c(N=Nc5ccc(S(=O)(=O)O)cc5)c(O)c4c3N)c(C)c2)ccc1N=Nc1ccc(O)cc1O [compound 3, reference compound] | 1.20 | 0.92 | 2.24 | 1.00 | 4.16 | 2.56 | 1.12 | 3.56 | 0.16 | 0.96 | Positive (when the ratio is more than 2, it is "positive")
11 | Nc1c(N=Nc2ccc(Oc3cccc(Oc4ccc(N=Nc5ccc(O)cc5O)cc4)c3)cc2)c(S(=O)(=O)O)cc2cc(S(=O)(=O)O)c(N=Nc3ccccc3)c(O)c12 [Ex. 2] | 1.34 | 1.07 | 1.19 | 1.20 | 1.39 | 1.02 | 1.28 | 1.16 | 1.27 | 1.28 | Negative (When the ratio is less than 2, it is "negative")
12 | CCC(C)c1ccc(N=Nc2c(S(=O)(=O)O)cc3cc(S(=O)(=O)O)c(N=Nc4ccc(Oc5ccc(Oc6ccc(N=Nc7ccc(O)cc7O)cc6)cc5)cc4)c(N)c3c2O)cc1 (centres unmarked) [Ex. 6] | 1.01 | 1.01 | 1.00 | 1.04 | 0.98 | 1.16 | 0.84 | 0.97 | 0.84 | 0.91 | Negative (When the ratio is less than 2, it is "negative")
13 | Nc1ccc2c(O)c(N=Nc3ccccc3)c(S(=O)(=O)O)cc2c1N=Nc1ccc(Oc2ccc(Oc3ccc(N=Nc4ccc(O)cc4O)cc3)cc2)cc1 [Ex. 11] | 1.25 | 0.96 | 1.64 | 1.00 | 1.34 | 0.81 | 0.64 | 1.04 | 1.07 | 1.35 | Negative (When the ratio is less than 2, it is "negative")
